Source: article PMC10709440, “High-throughput ligand profile characterization in novel cell lines expressing seven heterologous insect olfactory receptors for the detection of volatile plant biomarkers” (Scientific Reports, 2023)
Where two headings read alike, the source gives them in different places.

How the values were obtained:
Drosophila OR10a = molecular target: T1, Drosophila OR10a (Drosophila melanogaster, UniProt Q9VYZ1); assay: Calcium ion fluorescence (GCaMP6) assay, OR10a stable HEK293 cell line; format: cell-based; conditions: for OR10a response (VUAA1-normalized) at 1 μM / OR10a response (VUAA1-normalized) at 10 μM / OR10a response (VUAA1-normalized) at 100 μM: OR10a cell line; for OR10a response (VUAA1-normalized) at 1 μM: VOC concentration 1 μM; for OR10a response (VUAA1-normalized) at 10 μM: VOC concentration 10 μM; for OR10a response (VUAA1-normalized) at 100 μM: VOC concentration 100 μM
T1 construct: expressed in transfected cells
T1 sequence (Q9VYZ1 1-406): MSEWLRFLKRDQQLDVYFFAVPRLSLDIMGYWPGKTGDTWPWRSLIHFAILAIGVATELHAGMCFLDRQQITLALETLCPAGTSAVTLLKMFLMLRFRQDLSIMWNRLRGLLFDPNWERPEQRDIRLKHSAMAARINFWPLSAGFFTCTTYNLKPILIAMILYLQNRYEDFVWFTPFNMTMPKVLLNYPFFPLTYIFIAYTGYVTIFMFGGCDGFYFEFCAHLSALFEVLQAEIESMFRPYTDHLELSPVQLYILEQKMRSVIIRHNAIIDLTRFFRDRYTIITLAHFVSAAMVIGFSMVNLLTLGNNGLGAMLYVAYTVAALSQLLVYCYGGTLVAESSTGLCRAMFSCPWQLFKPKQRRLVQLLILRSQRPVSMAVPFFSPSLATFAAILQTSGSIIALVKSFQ
T1 sequence (Q9VNB5 1-486 partner): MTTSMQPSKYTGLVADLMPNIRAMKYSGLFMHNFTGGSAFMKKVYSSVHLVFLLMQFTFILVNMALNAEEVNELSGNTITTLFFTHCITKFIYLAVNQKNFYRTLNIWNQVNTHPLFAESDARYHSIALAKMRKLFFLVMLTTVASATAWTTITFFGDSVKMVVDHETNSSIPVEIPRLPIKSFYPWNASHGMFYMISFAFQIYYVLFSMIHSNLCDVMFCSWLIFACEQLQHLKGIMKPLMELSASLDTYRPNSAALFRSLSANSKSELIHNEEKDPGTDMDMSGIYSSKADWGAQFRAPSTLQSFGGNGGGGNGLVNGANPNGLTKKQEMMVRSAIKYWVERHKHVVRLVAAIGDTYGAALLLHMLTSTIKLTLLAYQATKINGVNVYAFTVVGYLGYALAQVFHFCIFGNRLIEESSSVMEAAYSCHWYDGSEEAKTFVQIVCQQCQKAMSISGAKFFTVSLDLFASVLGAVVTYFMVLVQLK
Procedure: (§1) These VUAA1 normalized ∆F values were used to compare the different receptors and ligands.
(§2) The concentration-dependent effect of the reference ligands on their cognate cell lines was examined in more detail. Twelve different ligand concentrations were measured on each cell line in an overall 0.01 μM to 100 μM concentration range with 5 repetitions with three technical replicates each time.
(§3) Twelve thousand to 18,000 cells were plated into each well of a black wall, transparent bottom 384-well microplate (Greiner) 48 h or 72 h before the measurements and were simultaneously treated with 1 μg/mL doxycycline. […] The plate has 24 columns, thus we could record responses in up to eight different cell lines in each plate. On the day of the experiment, the growth medium was replaced with 20 µL assay buffer/well (140 mM NaCl, 5 mM KCl, 2 mM CaCl2, 1 mM MgCl2, 5 mM HEPES-Na, 20 mM glucose, pH 7.3, 340 mOsm). […] Baseline fluorescence (F0) was recorded for 5 s, after which 7 µL VOC buffer (140 mM NaCl, 5 mM KCl, 2 mM CaCl2, 1 mM MgCl2, 5 mM HEPES-Na, 31 mM glucose, 0.1% DMSO, pH 7.3, 340 mOsm) was injected into each well in one row and the fluorescence response was recorded for an additional 30 s, at a rate of one read/sec. VOC solutions (VOC buffer with 4× concentration of the final measured VOC concentration, 9 µL/well was injected) were measured on the same wells in a second round with the same protocol. Each individual concentration of a specific VOC sample was recorded in three wells for the same cell line on the same microplate. The raw data were exported in xls file format, F0 and FMAX values, and the fluorescence intensity changes (∆F) were calculated in Excel (Microsoft) (Supplementary file Data summary.xlsx) using the following equation: ΔF=FMAX-F0/F0 (see also Fig. 1C). On each plate, we recorded the response of each cell line to 50 µM VUAA1. The average of these ∆F values of each cell line were used to calculate the VUAA1-normalized values for the rest of the plate, by dividing VOC response ∆F values by the average VUAA1 response ∆F value of the corresponding OR cell line. Each VOC-OR combination was measured three times as technical replicates. […] The average of these replicates were used as one ∆F and VUAA1-normalized ∆F in the following analysis.
(§4) In the next rows we tested the reference VOCs (or other VOCs known to activate the corresponding cell lines), in order to test if all cell lines are responsive. The remaining rows were used to test VOCs with unknown effect.
(§5) The recorded FMAX, F0, ∆F, VUAA1-normalized ∆F values, as well as the OR name, the name of the tested sample, and the final concentration for each well were copied into supplementary file Data summary.xlsx, that was used to summarize all the plates recorded. Here, the averages of the measurements were calculated for each receptor-VOC-concentration combination.

Drosophila OR47a = molecular target: T2, Drosophila OR47a (Drosophila melanogaster, UniProt P81921); assay: Calcium ion fluorescence (GCaMP6) assay, OR47a stable HEK293 cell line; format: cell-based; conditions: for OR47a response (VUAA1-normalized) at 1 μM / OR47a response (VUAA1-normalized) at 10 μM / OR47a response (VUAA1-normalized) at 100 μM / Average response: OR47a cell line; for OR47a response (VUAA1-normalized) at 1 μM: VOC concentration 1 μM; for OR47a response (VUAA1-normalized) at 10 μM: VOC concentration 10 μM; for OR47a response (VUAA1-normalized) at 100 μM: VOC concentration 100 μM; for Average response: mean of biological replicates
T2 construct: expressed in transfected cells
T2 sequence (P81921 1-385): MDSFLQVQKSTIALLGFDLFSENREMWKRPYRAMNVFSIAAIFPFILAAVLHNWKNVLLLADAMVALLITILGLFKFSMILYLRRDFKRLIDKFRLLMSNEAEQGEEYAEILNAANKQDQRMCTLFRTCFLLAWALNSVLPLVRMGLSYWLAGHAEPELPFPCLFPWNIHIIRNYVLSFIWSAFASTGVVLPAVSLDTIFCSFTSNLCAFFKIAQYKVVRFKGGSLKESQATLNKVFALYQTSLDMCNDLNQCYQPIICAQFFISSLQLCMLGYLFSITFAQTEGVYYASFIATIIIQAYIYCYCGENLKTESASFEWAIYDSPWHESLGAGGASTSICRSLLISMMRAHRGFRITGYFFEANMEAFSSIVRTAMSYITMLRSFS
T2 sequence (Q9VNB5 1-486 partner): T1 sequence (Q9VNB5 1-486 partner)
Procedure: as §1, §2, §3, §4, §5

[1] = HEK293, 1 μM VOC, 50 μM VUAA1 = 1, responses not exceeding 0.05 considered 0, read-out: OR10a Average response (VUAA1-normalized)
[2] = HEK293, 10 μM VOC, 50 μM VUAA1 = 1, responses not exceeding 0.05 considered 0, read-out: OR10a Average response (VUAA1-normalized)
[3] = HEK293, 100 μM VOC, 50 μM VUAA1 = 1, responses not exceeding 0.05 considered 0, read-out: OR10a Average response (VUAA1-normalized)
[4] = ligand concentration 1 (unit not given), threshold 0.05, below shown as 0
[5] = ligand concentration 10 (unit not given), threshold 0.05, below shown as 0
[6] = ligand concentration 100 (unit not given), threshold 0.05, below shown as 0
[7] = HEK293, read-out: OR10a Average response (VUAA1-normalized), 1 μM VOC, 50 μM VUAA1 = 1, responses not exceeding 0.05 considered 0
[8] = HEK293, read-out: OR10a Average response (VUAA1-normalized), 10 μM VOC, 50 μM VUAA1 = 1, responses not exceeding 0.05 considered 0
[9] = HEK293, read-out: OR10a Average response (VUAA1-normalized), 100 μM VOC, 50 μM VUAA1 = 1, responses not exceeding 0.05 considered 0
[10] = ligand concentration 1 (unit not given), 0.05 threshold, values below shown as 0
[11] = ligand concentration 10 (unit not given), 0.05 threshold, values below shown as 0
[12] = ligand concentration 100 (unit not given), 0.05 threshold, values below shown as 0
[13] = HEK293, read-out: OR10a response (VUAA1-normalized response), VOC concentration 1 μM
[14] = HEK293, read-out: OR10a response (VUAA1-normalized response), VOC concentration 10 μM
[15] = HEK293, read-out: OR10a response (VUAA1-normalized response), VOC concentration 100 μM
[16] = HEK293, read-out: OR47a response (VUAA1-normalized response)
[17] = 100 µM, OR10a clone G5, single plate 2019.12.05

| SMILES | activation at 1 µM (Drosophila OR10a; [1]) [%] | activation at 10 µM (Drosophila OR10a; [2]) [%] | activation at 100 µM (Drosophila OR10a; [3]) [%] | OR10a response (VUAA1-normalized) at 1 μM (Drosophila OR10a) | OR10a response (VUAA1-normalized) at 10 μM (Drosophila OR10a) | OR10a response (VUAA1-normalized) at 100 μM (Drosophila OR10a) | DF norm AVERAGE OR10a (Drosophila OR10a; [4]) | DF norm AVERAGE OR10a (Drosophila OR10a; [5]) | DF norm AVERAGE OR10a (Drosophila OR10a; [6]) | OR47a response (VUAA1-normalized) at 1 μM (Drosophila OR47a) | OR47a response (VUAA1-normalized) at 10 μM (Drosophila OR47a) | OR47a response (VUAA1-normalized) at 100 μM (Drosophila OR47a) | Average response (Drosophila OR47a; odorant cc. 1 µM) | Average response (Drosophila OR47a; odorant cc. 10 µM) | Average response (Drosophila OR47a; odorant cc. 100 µM) | DF norm AVERAGE OR47a (Drosophila OR47a; [4]) | DF norm AVERAGE OR47a (Drosophila OR47a; [5]) | activation at 1 µM (Drosophila OR10a; [13]) [%] | activation at 10 µM (Drosophila OR10a; [14]) [%] | activation at 100 µM (Drosophila OR10a; [15]) [%] | also measured |
| --- | --- | --- | --- | --- | --- | --- | --- | --- | --- | --- | --- | --- | --- | --- | --- | --- | --- | --- | --- | --- | --- |
| CCCCCCCCC=O [nonanal] | 0 | 3 | 0 | 0.00 | 0.00 | 0.00 | 0 | 0 | 0 | 0.00 | 0.00 | 0.00 | 0.00 | 0.00 | 0.00 | 0 | 0 |  |  |  | DF norm AVERAGE OR47a (Drosophila OR47a; [6]): 0 |
| Cc1ccccc1 [toluene] |  |  |  | 0.00 | 0.00 | 0.07 |  |  |  | 0.00 | 0.00 | 0.00 | 0.00 | 0.0267 | 0.00 |  |  |  |  |  | activation at 1 µM (Drosophila OR10a; [7]): 3%; activation at 10 µM (Drosophila OR10a; [8]): 0%; activation at 100 µM (Drosophila OR10a; [9]): 7%; DF norm AVERAGE OR10a (Drosophila OR10a; [10]): 0; DF norm AVERAGE OR10a (Drosophila OR10a; [11]): 0; DF norm AVERAGE OR10a (Drosophila OR10a; [12]): 0.07043; DF norm AVERAGE OR47a (Drosophila OR47a; [10]): 0; DF norm AVERAGE OR47a (Drosophila OR47a; [11]): 0; DF norm AVERAGE OR47a (Drosophila OR47a; [12]): 0 |
| CCCC(=O)OCC [ethyl butyrate] | 0 | 2.38 | 2.76 |  |  |  | 0 | 0 | 0 |  |  |  | 0.00 | 0.00 | 0.0448 | 0 | 0 | 0 | 0 | 0 | activation at 1 µM (Drosophila OR47a; [16]): 0%; activation at 10 µM (Drosophila OR47a; [16]): 0%; activation at 100 µM (Drosophila OR47a; [16]): 0%; DF norm AVERAGE OR47a (Drosophila OR47a; [6]): 0 |
| CCCCOC(=O)CC [butyl propanoate] | 0 | 0 | 3.44 |  |  |  | 0 | 0 | 0 |  |  |  |  |  |  |  |  | 0 | 0 | 0 | DF norm, all technical replicates (Drosophila OR10a; [17]): 0; DF norm, outlier technical replicates removed (Drosophila OR10a; [17]): 0; DF, outlier technical replicates removed (Drosophila OR10a; [17]): 0; DF, all technical replicates (Drosophila OR10a; 100 µM, OR10a clone G5, single plate 2019.12.05, xc+0.1%DMSO): 0 |
| CCCCOC(C)=O [butyl acetate] |  |  |  |  |  |  | 0 | 0 | 0 |  |  |  |  |  |  |  |  | 0 | 0 | 0 | activation at 1 µM (Drosophila OR10a; [7]): 3%; activation at 10 µM (Drosophila OR10a; [8]): 0%; activation at 100 µM (Drosophila OR10a; [9]): 5% |
